Measurements from patent US12350273B2, “Treatment of SMA” (Hoffmann-La Roche Inc., priority 2017, dated 2025).

What was measured:
human iPSCs = experiment: Cell cycle analysis of human iPSCs (flow cytometry); assay type: cell-based; conditions: for percentage of events in G1 phase, mean / percentage of events in G2 phase, mean / percentage of events in S phase, mean: 24 h
Experimental: For the analysis of the cell cycle, monkey stem cells were detached with Accutase (Stem Cell Technologies) and plated at 15000 cells/cm2 in 6 well plates coated with Matrigel (BD Biosciences) in MT medium supplemented with 10 ng/ml ActivinA, 15 ng/ml FGF2, and 10 μM Rock inhibitor. Cells were expanded for 1 day and then synchronized by starvation for 7 h in MT medium without supplements FGF2 and ActivinA. Before flow cytometry, cells were incubated for 24 h with fresh MT medium containing supplements FGF2 and ActivinA and test items at 80 nM, 400 nM, and 2000 nM or 30 nM rapamycin as positive control to arrest cells in G1 phase. Human stem cells were detached with Accutase (Stem Cell Technologies) and plated at 40000 cells/cm2 in 6 well plates coated with Matrigel (BD Biosciences) in mTeSR1 supplemented with 10 μM Rock Inhibitor Y-27632 (Sigma-Aldrich). Cells were expanded for 3 days with daily medium change. Since human iPSCs lose their properties during starvation by growth factor withdrawal, stem cells were synchronized with 200 ng/ml Nocodazole (Sigma-Aldrich) for 5 h and washed subsequently 2 times with mTesR1 Medium. Before flow cytometry, cells were incubated for 24 h with fresh TesR1 medium containing test items at 80 nM, 400 nM, and 2000 nM or 30 nM rapamycin as positive control to arrest cells in G1 phase.
For cell cycle analysis, human iPSCs were washed with PBS, detached with Accutase (Stem Cell Technologies) and collected by centrifugation. Cells were stained for 1 h at 37° C. with 600 ul of 7 AAD/Saponin/RNAse mix ([…] 7 AAD (#559925, BD), 50 μg/ml RNase, and 0.03% Saponin dissolved in FACS buffer (PBS, 5% FBS, 10 mM Hepes)). Cynomolgus monkey iPSCs were washed with PBS, detached with Accutase (Stem Cell Technologies) and collected by centrifugation. Cells were stained for 30 min at 37° C. in 300 ul standard MT medium (with FGF2 and ActivinA) containing 1 ul Vybrant Dye Cycle Violet Stain (#V35003, 1000× stock, Invitrogen) per ml medium. Additionally 2 ul 7 AAD (50 μg/ml 7 AAD) were added without permeabilization to label dead cells; cells were incubated for 10 min at 37° C. Flow cytometry analysis was performed using a Canto II cytometer (BD Biosciences) and data were analysed with the FlowJo software.

[1] = 39-week monkey toxicity study: retina effects (ERG, sdOCT, histopathology), NOAEL; conditions: cynomolgus monkey; for AUC(0-t): plasma
retina [2] = experiment: as above; conditions: for ERG B-wave amplitude, left eye / ERG B-wave amplitude, right eye: Animal 0114 (female, 7.5/5 mg/kg/day)
retina [3] = conditions: monkey, in vivo
Source text: Over the in-life duration of the 39-week monkey toxicity study with RO7034067, the low dose remained free of any test-item related changes in sdOCT and ERG until the last week of assessment (week 35).

SMN protein = SMN protein (HTRF) in brain and quadriceps muscle of C/C-allele mice; assay type: in vivo
Experimental: FIG. 1A-FIG. 1D: Increase in SMN Protein Expression In Vivo • HET=heterogygous. • C/C-allele mice and SMNΔ7 mice were treated with RO7034067. One hour after the last dose, brains and quadriceps muscles were collected and levels of SMN protein were assessed by HTRF. FIG. 1A. SMN protein in brains of C/C-allele mice. FIG. 1B. SMN protein in brains of SMNΔ7 mice. FIG. 1C. SMN protein in quadriceps muscle of C/C-allele mice. FIG. 1D. SMN protein in quadriceps muscle of SMNΔ7 mice. Data represent means±SEM of 5-6 animals per group and are expressed as fold change vs. vehicle-treated controls. *=p<0.05, **=p<0.01, ***=p<0.001 vs. untreated controls.
Adult C/C-allele mice were treated for 10 days with vehicle or RO7034067 (1, 3 or 10 mg/kg per os [PO], daily), and PND3 SMNΔ7 mice were treated for 7 days with vehicle or RO7034067 (0.1, 0.3, 1 or 3 mg/kg intraperitoneal [IP], daily). […] In SMNΔ7 mice, the SMN protein increase was only partial in both brain and muscle, reaching approximately 43% (brain) and 55% (muscle) of protein levels in heterozygous mice.

MADD gene transcript = experiment: 2-week dose-range finding toxicity study in cynomolgus monkey: MADD splicing in spleen, duodenum, testis; assay type: in vivo; conditions: cynomolgus monkey 2 weeks, highest dose (0.75, 1.5, 3 and 6 mg/kg/day tested); all three organs
Experimental: Similar investigations were integrated into the 2-week dose-range finding toxicity study conducted in the cynomolgus monkey with RO7034067. For this purpose, spleen, duodenum, and testis were analyzed from the animals treated with 0.75, 1.5, 3 and 6 mg/kg/day. […] Since secondary pharmacology was detected in spleen, this organ was further analyzed for transcriptome-wide mRNA splicing or expression changes by RNA-sequencing. […] Furthermore, a dose-dependent trend for pathway expression changes was not detected. Therefore, while the few changes in RO7034067-mediated alternative transcript splicing are consistent with in vitro data and those of other SMN2 splicing modifiers, they seem not to fundamentally affect biological pathways or processes under the conditions of this study.

Compound: Cc1cn2nc(-c3cc(=O)n4cc(N5CCNC6(CC6)C5)ccc4n3)cc(C)c2n1 [RO7034067, 7-(4,7-diazaspiro[2.5]octan-7-yl)-2-(2,8-dimethylimidazo[1,2-b]pyridazin-6-yl)pyrido[1,2-a]pyrimidin-4-one]
- percentage of events in G1 phase, mean (human iPSCs; 80 nM): 44.6%
- percentage of events in G2 phase, mean (human iPSCs; 80 nM): 29.2%
- percentage of events in S phase, mean (human iPSCs; 80 nM): 26.2%
- percentage of events in G1 phase, mean (human iPSCs; 400 nM): 40.8%
- percentage of events in G2 phase, mean (human iPSCs; 400 nM): 31.4%
- percentage of events in S phase, mean (human iPSCs; 400 nM): 27.8%
- percentage of events in G1 phase, mean (human iPSCs; 2000 nM): 37.6%
- percentage of events in G2 phase, mean (human iPSCs; 2000 nM): 29.3%
- percentage of events in S phase, mean (human iPSCs; 2000 nM): 33.1%
- effect on cell cycle (human iPSCs; concentration-dependent): cell cycle arrest in S phase
- NOAEL at 39 weeks ([1]; both, in vivo, po): 1.5 mg/kg/day
- AUC(0-t) ([1]; oral): 4260 ng·h/mL
- AUC(0-t) ([1]; female, po, 3 mg/kg/day): 4850 ng·h/mL
- AUC(0-t) ([1]; female, po, 5 mg/kg/day): 6470 ng·h/mL
- AUC(0-t) ([1]; male, po, 3 mg/kg/day): 4880 ng·h/mL
- AUC(0-t) ([1]; male, po, 5 mg/kg/day): 5880 ng·h/mL
- animals noted with ERG deficits (retina [2]; 1.5 mg/kg/day): No animals
- retinal appearance by sdOCT (retina [2]; 1.5 mg/kg/day): retained a normal retinal appearance
- AUC0-24h exposure free of retina effects (NOEL/NOAEL of the retina finding), females (retina [2]; 1.5 mg/kg/day, 39 weeks, females): 2060 ng·h/mL
- AUC0-24h exposure free of retina effects (NOEL/NOAEL of the retina finding), males (retina [2]; 1.5 mg/kg/day, 39 weeks, males): 1870 ng·h/mL
- animals with adverse histopathologic degeneration in mid to peripheral retina (retina [2]; 3 mg/kg/day): one female
- animals with adverse histopathologic degeneration in mid to peripheral retina (retina [2]; 7.5/5 mg/kg/day): two animals/sex
- ERG finding in several animals (retina [2]; 7.5/5 mg/kg/day, Week 20 of the dosing phase): markedly depressed scotopic and photopic ERGs
- primary finding of 39-week administration (retina [2]; 7.5/5 mg/kg/day, correlated with nonadverse epidermal hyperplasia): clinical signs in the skin
- reversibility of retinal degeneration (histopathology) (retina [2]; 22-week recovery period): not reversible during the recovery period
- recovery of MMD and depressed ERG (retina [2]; 22-week recovery phase): almost fully recovered
- ERG B-wave amplitude, left eye (retina [2]; recovery Week 22): 52.7 mcV
- ERG B-wave amplitude, right eye (retina [2]; recovery Week 22): 43.4 mcV
- ERG B-wave amplitude, left eye (retina [2]; recovery week 8): 33.5 mcV
- ERG B-wave amplitude, right eye (retina [2]; recovery week 8): 34.1 mcV
- lowest AUC0-24h exposure at the mid-dose with retina findings (retina [2]; animal No. 11): 4540 ng·h/mL
- lowest AUC0-24h exposure at the mid-dose with retina findings (retina [2]; animal No. 109): 4560 ng·h/mL
- lowest AUC0-24h exposure at the mid-dose with retina findings (retina [2]; animal No. 111): 4560 ng·h/mL
- animals with rod ERGs below the criteria (retina [2]; females, 1 mg/kg/day, Week 34): Two
- animals with depressed rod responses (ERG grading) (retina [2]; females, 3 mg/kg/day, Week 22): all three
- animals with depressed rod responses (ERG grading) (retina [2]; females, 3 mg/kg/day, Week 27): none
- animals with depressed rod responses (ERG grading) (retina [2]; females, 3 mg/kg/day, Week 35): 1 of 3
- animals with depressed rod responses (ERG grading) (retina [2]; females, 7.5/5 mg/kg/day, Week 20): 4 of 5
- animals with depressed rod responses (ERG grading) (retina [2]; females, 7.5/5 mg/kg/day, Week 26): 2 of 5
- animals with depressed rod responses (ERG grading) (retina [2]; females, 7.5/5 mg/kg/day, Week 34): 4 of 5
- individual AUC0-24h exposure free of effects on the retina (retina [2]; individual animals, end of study): up to 2300 ng·h/mL
- ERG finding (retina [2]; intermediate and low dose groups (3.0 and 1.5 mg/kg/day), dosing phase): generally remained within expected limits
- animals with rod response below the expected range (retina [2]; males, 1 mg/kg/day): No males
- animals with depressed rod responses (ERG grading) (retina [2]; males, 3 mg/kg/day, Week 22): 1 of 3
- animals with depressed rod responses (ERG grading) (retina [2]; males, 3 mg/kg/day, Week 26 or 35): none
- sdOCT finding (retina [2]; males, 3 mg/kg/day, Weeks 22, 27 and 35): minimal/mild retinal disorganization in the periphery
- animals with depressed rod responses (ERG grading) (retina [2]; males, 7.5/5 mg/kg/day, Week 20): Four of five
- animals with depressed rod responses (ERG grading) (retina [2]; males, 7.5/5 mg/kg/day, Week 26): 2 of 5
- animals with depressed rod responses (ERG grading) (retina [2]; males, 7.5/5 mg/kg/day, Week 34): 5 of 5
- individual AUC0-24h exposures without retina changes (retina [3]): up to 15,100 ng·h/mL
- SMN levels in muscle compared with heterozygous mice (SMN protein; C/C-allele mice, 10 mg/kg): no different from those in heterozygous mice
- SMN protein levels in brain and muscle tissue, maximum effect (SMN protein; adult C/C-allele mice, 10 mg/kg PO daily, 10 days): 2-3 fold
- mRNA isoform specific qPCR of MADD gene transcript (MADD gene transcript): secondary pharmacological response
